“Also recorded” adds a separate entry of the source. Read-outs that look alike come from different tables or passages of the source.

The values below come from patent US20100291236A1, “OSMIUM COMPOUNDS” (THE UNIVERSITY OF WARWICK, priority 2006, published 2010).

Data set [1] is described as follows: Acidity (pKa / pKa*) of coordinated water, 1H NMR pH* titration. An excerpt:
pKa* calculations. […] The chemical shifts of the arene ring protons were plotted against pH*. The pH* titration curves were fitted to the Henderson-Hasselbalch equation, with the assumption that the observed chemical shifts are weighted averages according to the populations of the protonated and deprotonated species.

Data set [2] has as its system human lung A549 cancer cells. Briefly: Cytotoxicity towards A549 cells, sulforhodamine B (SRB) assay. It counts as cell-based. How it is done:
(§1) Experimental: Cytotoxicity Towards A2780 and A549 Human Cancer Cells. After plating, human ovarian A2780 cancer cells were treated with Os^II complexes on day 3, and human lung A549 cancer cells on day 2, at concentrations ranging from 2 μM to 50 μM. Solutions of the Os^II complexes were made up in 0.125% DMSO to assist dissolution. Cells were exposed to the complexes for 24 h, washed, supplied with fresh medium, allowed to grow for three doubling times (72 h), and then the protein content measured (proportional to cell survival) using the sulforhodamine B (SRB) assay.
(§2) Cancer Cell Cytotoxicity. After plating, human ovarian A2780 cancer cells were treated with OsII complexes on day 3, and human lung A549 cancer cells on day 2, at concentrations ranging from 0.1 μM to 100 μM. Solutions of the OsII complexes were made up in 0.125% DMSO to assist dissolution. Cells were exposed to the complexes for 24 h, washed, supplied with fresh medium, allowed to grow for three doubling times (72 h), and then the protein content measured (proportional to cell survival) using the sulforhodamine B (SRB) assay.10

The subject of data set [3] is human ovarian A2780 cancer cells. The experiment in a line: Cytotoxicity towards A2780 cells, sulforhodamine B (SRB) assay. The class given is cell-based. How it is done:
as §1, §2

The test system of a further data set is 9-ethyl adenine (9EtA). Briefly: Reaction with nucleobase model 9-ethyl adenine, 1H NMR. The class given is binding. Particulars: for +1 eq. 9-EtA (% adduct formation): pH* close to 7.4, 298 K; for % 9EtA nucleobase adduct: 1 mM complex, 1 mol equivalent 9EtA, D2O. How it is done: (§3) Since DNA is believed to be the main target for metal anticancer drugs, nucleobase binding reactions of compounds 3-6, with nucleobase models, 9-ethyl guanine (9EtG) and 9-ethyl adenine (9EtA), were investigated.
(§4) Solutions of 3-6 (1 mM) (present as an equilibrium between 3-6 and their respective aqua adducts as the major species) with 1 mol equivalent of 9EtG (Table 14) or 9EtA (Table 15) in D2O were prepared and ^1H NMR spectra were taken at different time intervals.
(§5) Interactions with Nucleobases. The reaction of compounds 8-12 with nucleobases typically involved addition of a solution containing 1 mol equiv of nucleobase in D2O, to an equilibrium solution of compounds 8-12 in D2O (>90% aqua). The pH* value of the sample was adjusted if necessary so as to remain close to 7.4 (physiological). ^1H NMR spectra of these solutions were recorded at 298 K after various time intervals.

For the next data set, the system named is 9-ethyl guanine (9EtG). Briefly: Reaction with nucleobase model 9-ethyl guanine, 1H NMR. It counts as binding. Conditions: for +1 eq. 9-EtG (% adduct formation): pH* close to 7.4, 298 K; for % 9EtG nucleobase adduct: 1 mM complex, 1 mol equivalent 9EtG, D2O. How it is done:
as §3, §4, §5

Data set [4] can be described thus: Hydrolysis (aquation) kinetics followed by 1H NMR. The class given is physicochemical. How it is done:
Hydrolysis. […] The rate of hydrolysis was determined by fitting plots of concentrations (determined by ^1H NMR peak integrals) versus time to a pseudo first-order equation using ORIGIN version 5.0 (Microcal Software Ltd.).

The mark [5] stands for this setting: Table 7, 24 h exposure, 72 h growth, 2-50 μM, read-out: IC50/μM A549.
Setting [6] is: Table 7, 24 h exposure, 72 h growth, 2-50 μM, read-out: IC50/μM A2780.
[7] abbreviates: Table 8, compounds 1-6, read-out: A549 IC50.
[8] abbreviates: Table 8, compounds 1-6, read-out: A2780 IC50.
[9] abbreviates: 288 K, 5% MeOD-d4/95% D2O, pH* 2.
[10] abbreviates: 298 K, 5% MeOD-d4/95% D2O, pH* 2.
[11] abbreviates: Table 19, read-out: IC50 (μM) in A2780.

In the case of “[(η^6-p-cym)Os(O2C6H3CH3NCH3)Cl] [AFAP57]”, in data set [1], the “pKa of water coordinated on hydrolysis (aqua adduct of complex)” value (shortened to “pKa of water coordinated on hydrolysis”) came out at 8.31. For the same compound, the figures for the IC50 in data set [2] (setting [5]) and in data set [3] (setting [6]) were greater than 100 µM and 40 µM, respectively.

Turning to `CC(N)C(=O)[O][Ru][Cl].Cc1ccc(C(C)C)cc1` [RF02(a), reference compound], the IC50 in data set [3] (setting [6]) was greater than 100 µM.

On to `C1=CCC2=C(C1)Cc1ccccc1C2.F[B-](F)(F)F.NCCN.[Cl][Os+]` [AFAP65, [(η^6-THA)Os(en)Cl]BF4], for which the “pKa of water coordinated on hydrolysis” value in data set [1] is given as 6.33. Besides, the figures for the IC50 in data set [2] (setting [5]) and in data set [3] (setting [6]) were 6.4 µM and 9.4 µM, respectively.

On to `O=C(c1ccccn1)[N]([Os][Cl])c1ccccc1.c1ccc(-c2ccccc2)cc1` [Compound 10, [(η^6-bip)Os(N-Ph-picolinamide)Cl]PF6], for which the “+1 eq. 9-EtA (% adduct formation)” value in the data set on 9-ethyl adenine (9EtA) (t = 0.17 h) and in the data set on 9-ethyl adenine (9EtA) (t = 24 h) was 0% in each case. Besides, the “+1 eq. 9-EtG (% adduct formation)” value in the data set on 9-ethyl guanine (9EtG) (t = 0.17 h) and in the data set on 9-ethyl guanine (9EtG) (t = 24 h) was 73% throughout. For the same compound, the “Hydrolysis k/h^−1” value in data set [4] (Table 18, 288 K, 0.8 mM) is listed as “≧5.9 h^−1”.

Take `Cc1ccc(C(C)C)cc1.NCC(=O)[O][Ru][Cl]` [RF01, reference compound]: the “pKa of water coordinated on hydrolysis” value in data set [1] came out at 8.65. Moreover, the IC50 in data set [3] (setting [6]) is greater than 100 µM.

Regarding `O=C([O][Os][Cl])c1cccc(O)n1.c1ccc(-c2ccccc2)cc1` [Compound 2, [(η^6-bip)Os(6-OH-pico)Cl]], the IC50 in data set [2] (setting [7]) and in data set [3] (setting [8]) was greater than 50 µM each time.

Consider `C1=CCC2=C(C1)Cc1ccccc1C2.F[P-](F)(F)(F)(F)F.NCCN.[Cl][Ru+]` [HC11, reference compound], for which the “pKa of water coordinated on hydrolysis” value in data set [1] stood at 8.01. The IC50 in data set [2] (setting [5]) and in data set [3] (setting [6]) was 0.5 µM in each case.

Take `O=C(O)c1ccnc(C(=O)[O][Os][Cl])c1.c1ccc(-c2ccccc2)cc1` [Compound 5, [(η^6-bip)Os(4-CO2H-pico)Cl]]: the “pKa* of the aqua adduct” value in data set [1] came to 6.61. Also, the IC50 in data set [2] (setting [7]) and in data set [3] (setting [8]) was greater than 50 µM in each case. The “% 9EtA nucleobase adduct” value was found to be 0% in the data set on 9-ethyl adenine (9EtA) (t = 10), 100% in the data set with 9-ethyl adenine (9EtA) (t = 24 h) and 100% in the data set on 9-ethyl adenine (9EtA) (t = 72 h). Also, the “binding to 9EtA (nucleobase adduct formation)” value in the data set with 9-ethyl adenine (9EtA) (time not given) came to 100%. The “% 9EtG nucleobase adduct” value amounted to 0% with 9-ethyl guanine (9EtG) (t = 10), 100% with 9-ethyl guanine (9EtG) (t = 24 h) and 100% in the data set with 9-ethyl guanine (9EtG) (t = 72 h). For the same compound, the “binding to 9EtG (nucleobase adduct formation)” value in the data set on 9-ethyl guanine (9EtG) (time not given) is reported as 100%. Further, in data set [4] (5% MeOD-d4/95% D2O, pH* 2), the “Extent of hydrolysis at equilibrium (aqua adduct)” value was 100%. The “Hydrolysis k/h^−1” value in data set [4] (setting [9]) was 0.158 ± 0.011 h⁻¹; in data set [4] (setting [10]) it was 0.384 ± 0.004 h⁻¹.

As to `[NH2][Pt]([NH2])([Cl])[Cl]` [CDDP, cisplatin, reference compound], the IC50 in data set [3] (setting [11]) is roughly 0.5 µM.

Turning to `CC(=O)C=C(C)[O][Os][Cl].Cc1ccc(C(C)C)cc1` [AFAP29], the “pKa of water coordinated on hydrolysis” value in data set [1] was 7.63. The IC50 in data set [2] (setting [5]) and in data set [3] (setting [6]) was greater than 100 µM throughout.

For the compound “[(η^6-p-cym)Os(N-2,4-difluoride-Ph-picolinamide)Cl]PF6 [Compound 8]”, in data set [2], the “Activity in A549 cancer cell line” value is on record as “moderately cytotoxic”. Moreover, the IC50 in data set [2] (Example 6, read-out: IC50 in human lung A549 cancer cell line) was 10 to 50 µM; in data set [3] (setting [11]), 8.2 µM. Besides, the “+1 eq. 9-EtA (% adduct formation)” value with 9-ethyl adenine (9EtA) (t = 0.17 h) and in the data set on 9-ethyl adenine (9EtA) (t = 24 h) was 0% in each case. The “Activity in A2780 cancer cell line” value in data set [3] is reported as “cytotoxic; also recorded: active”. Further, the “+1 eq. 9-EtG (% adduct formation)” value in the data set with 9-ethyl guanine (9EtG) (t = 0.17 h) and in the data set with 9-ethyl guanine (9EtG) (t = 24 h) was 56% each time. Besides, the “Hydrolysis k/h^−1” value in data set [4] (Table 18, 288 K, 0.8 mM) was “≧5.9 h^−1”.

Regarding `Cc1ccc(C(C)C)cc1.O=C1c2cccc[n+]2[Os-]([Cl])[N]1c1ccccc1[N+](=O)[O-]` [Compound 11], the “+1 eq. 9-EtA (% adduct formation)” value in the data set with 9-ethyl adenine (9EtA) (t = 0.17 h) and in the data set on 9-ethyl adenine (9EtA) (t = 24 h) was 0% in each case. The “+1 eq. 9-EtG (% adduct formation)” value in the data set on 9-ethyl guanine (9EtG) (t = 0.17 h) and with 9-ethyl guanine (9EtG) (t = 24 h) was 69% throughout. In addition, the “Hydrolysis k/h^−1” value in data set [4] (Table 18, 288 K, 0.8 mM) was “≧5.9 h^−1”.

As to `O=C([O][Ru][Cl])C1CCCCN1.c1ccc(-c2ccccc2)cc1` [RF16, reference compound], the IC50 in data set [3] (setting [6]) is greater than 100 µM.

As to `O=C([O][Os][Cl])c1cccc(Br)n1.c1ccc(-c2ccccc2)cc1` [Compound 1, [(η^6-bip)Os(6-Br-pico)Cl]], the IC50 in data set [2] (setting [7]) and in data set [3] (setting [8]) was greater than 50 µM throughout. For the same compound, the “Hydrolysis k/h^−1” value in data set [4] (setting [10]) is 0.345 ± 0.0002 h⁻¹.

Turning to `Cc1cc(C)c(NC(=O)c2ccccn2)c(C)c1.Cc1ccc(C(C)C)cc1.F[P-](F)(F)(F)(F)F.[Cl][Os+]` [Compound 9, [(η^6-p-cym)Os(N-2,4,6-trimethyl-Ph-picolinamide)Cl]PF6], the “+1 eq. 9-EtA (% adduct formation)” value in the data set with 9-ethyl adenine (9EtA) (t = 0.17 h) and in the data set on 9-ethyl adenine (9EtA) (t = 24 h) was 0% throughout. Moreover, the “Activity in A2780 cancer cell line” value in data set [3] was “inactive”. The IC50 in data set [3] (setting [11]) is greater than 50 µM. Besides, the “+1 eq. 9-EtG (% adduct formation)” value in the data set with 9-ethyl guanine (9EtG) (t = 0.17 h) and with 9-ethyl guanine (9EtG) (t = 24 h) was 0% each time. Moreover, the “Rate of hydrolysis” value in data set [4] is recorded as “very slowly”. In data set [4] (Table 18, 310 K, 0.8 mM), the “Hydrolysis k/h^−1” value came out at 0.16 ± 0.01 h⁻¹.

With `Cc1ccc(C(C)C)cc1.NCCC(=O)[O][Ru][Cl]` [RF11, reference compound], the IC50 in data set [3] (setting [6]) is greater than 100 µM.

Turning to `CC(=O)C=C(C)[O][Ru][Cl].Cc1ccc(C(C)C)cc1` [MMS6, reference compound], the “pKa of water coordinated on hydrolysis” value in data set [1] is reported as 9.4. Further, the IC50 in data set [2] (setting [5]) is greater than 100 µM; in data set [3] (setting [6]), 19 µM.

Regarding `O=C([O][Os][Cl])c1cc(Cl)ccn1.c1ccc(-c2ccccc2)cc1` [Compound 4, [(η^6-bip)Os(4-Cl-pico)Cl]], the “pKa* of the aqua adduct” value in data set [1] is 6.30. Besides, the IC50 was 10 to 50 µM in data set [2] (setting [7]) and 4.8 µM in data set [3] (setting [8]). The “% 9EtA nucleobase adduct” value in the data set with 9-ethyl adenine (9EtA) (t = 10) amounted to 0%; in the data set on 9-ethyl adenine (9EtA) (t = 24 h), 62%; in the data set on 9-ethyl adenine (9EtA) (t = 72 h), 71%. The “Activity in A2780 cancer cell line” value in data set [3] is listed as “toxic”. Moreover, the “% 9EtG nucleobase adduct” value in the data set with 9-ethyl guanine (9EtG) (t = 10) is on record as 0%; in the data set with 9-ethyl guanine (9EtG) (t = 24 h), 59%; in the data set with 9-ethyl guanine (9EtG) (t = 72 h), 76%. In addition, the “Extent of hydrolysis at equilibrium (aqua adduct)” value in data set [4] (5% MeOD-d4/95% D2O, pH* 2) was 100%. The figures for the “Hydrolysis k/h^−1” value in data set [4] (setting [9]) and in data set [4] (setting [10]) were 0.288 ± 0.001 h⁻¹ and 0.656 ± 0.032 h⁻¹, respectively.
